Converted amounts (≈) assume the structure as drawn.
How the values were obtained:
Assay type in all cases: cell-based
[1] = tested on: Helicobacter pylori (three strains of ATCC43504, ATCC43526, and TK1402); test: Antibacterial activity on Helicobacter pylori, disk method, lethal concentration (LC); settings: culture 4 days
Procedure: A blank disk (produced by Beckton Deckinson Co.,) was placed in a brain heart infusion agar medium containing 7% horse blood and coated with Helicobacter pylori (three strains of ATCC43504, ATCC43526, and TK1402). The disk was soaked with 10 μl of a solution of a test compound in dimethylsulfoxide, and then cultured under microaerophilic conditions including 5% of O2, 10% of CO2 and 85% of N2 at 37° C. for 4 days. After the completion of culture, the diameter of a growth inhibition circle formed around the disk was measured, and the lethal concentration (LC) of each test compound was computed according to the computation expression of Hultmark et al. (The EMBO Journal, 2, 571-576, 1983).

[2] = tested on: human platelet aggregation; test: Effect on human platelet aggregation (ADP-induced, in the presence of SQ-29548); settings: human PRP, SQ-29548 added, aggregation induced with ADP, compound 10 μM; control 38 ± 4.9
Procedure: The blood collected from healthy persons was centrifuged to separate platelet-rich plasma (PRP) and platelet-poor plasma (PPP). […] Experiment was carried out for 3 examples per group.

[3] = tested on: Helicobacter pylori (2 ATCC strains and 25 clinical isolates); test: Antibacterial activity on Helicobacter pylori, agar dilution MIC, 27 strains; settings: for Growth inhibition rate: share of 27 strains inhibited
Procedure: As test strains, 2 commercial ATCC strains ([…] and TACC43526 strain) of Helicobacter pylori, and 25 clinical isolates were used. Each of the strains was inoculated into a brain heart infusion agar medium containing 7% horse blood, and cultured under microaerophilic conditions including 5% of O2, 10% of CO2 and 85% of N2 at 37° C. After culture for 3 to 4 days, colonies of each strain formed on the medium were collected, and suspended in a brain heart infusion medium containing 10% of fetal calf serum so that turbidity was McFarland No. 1 (the number of bacteria was about 3×10^8/ml) to form a test bacterial suspension. On the other hand, a test compound (compound 4) was dissolved in dimethylsulfoxide, and a diluent in a double dilution series was prepared with dimethylsulfoxide so that the final concentration of the solvent was 0.5%, to form a test drug solution. 100 μl of the test drug solution was mixed with 20 ml of a brain heart infusion agar medium containing 7% horse blood and about 45° C., and the resultant mixture was solidified by allowing to cool to form a test medium. Next, about 5 μl of test bacterial suspension was inoculated into the medium by using a micro planter, and then cultured under microaerophilic conditions including 5% of O2, 10% of CO2 and 85% of N2 at 37° C. for 4 days. […] The minimum concentration at which growth of 50% of the total 27 stains used in the test was inhibited was MIC50, and the minimum concentration at which growth of 90% the strains used was inhibited was MIC90.

Question: Which results are given for `COC(=O)CCc1cccc2c1OC1CC(OC(C)=O)C(C=C(F)C(=O)C(C)(C)Oc3ccccc3)C21` (stereo not drawn) [Example 1, 14-Fluoro-16-methyl-15-oxo-16-phenoxy-2,5,6,7,18,19,20-heptanor-4,8-inter-m-phenylene PGI2 Methyl Ester, 11-Acetate]?
Answer: Antibacterial activity (lethal concentration LC) ([1]; Helicobacter pylori strain ATCC43504): 141 ± 27 µM; Antibacterial activity (lethal concentration LC) ([1]; Helicobacter pylori strain ATCC43526): 169 ± 6 µM; Antibacterial activity (lethal concentration LC) ([1]; Helicobacter pylori strain TK1402): 151 ± 4 µM

Question: For `CC(C)(Oc1ccccc1)C(O)C(F)=CC1C(O)CC2Oc3c(CCC(=O)O)cccc3C21` (stereo not drawn) [Example 3, 14-Fluoro-16-methyl-16-phenoxy-2,5,6,7,18,19,20-heptanor-4,8-inter-m-phenylene PGI2], which Platelet aggregation [2] is on record?
Answer: 54 ± 1.7%

Question: Which results are given for `CC(C)(Oc1ccccc1)C(O)C(F)=CC1C(O)CC2Oc3c(CCC(=O)O)cccc3C21` (stereo not drawn) [Example 4, 14-Fluoro-16-methyl-16-phenoxy-15-epi-2,5,6,7,18,19,20-heptanor-4,8-inter-m-phenylene PGI2]?
Answer: Number of strains inhibited/total strains ([3]; concentration 12.5 μM): 11/27; Growth inhibition rate ([3]; concentration 12.5 μM): 40.7%; Number of strains inhibited/total strains ([3]; concentration 25 μM): 20/27; Growth inhibition rate ([3]; concentration 25 μM): 74.1%; Number of strains inhibited/total strains ([3]; concentration 50 μM): 26/27; Growth inhibition rate ([3]; concentration 50 μM): 96.3%; MIC50 ([3]; minimum concentration inhibiting growth of 50% of the total 27 strains): 12.5 µM (≈ 5.71 µg/mL); MIC90 ([3]; minimum concentration inhibiting growth of 90% of the total 27 strains): 50 µM (≈ 22.8 µg/mL)

— patent US6555559B1, “5,6,7-trinor-4,8-inter-m-phenylene PGI2, derivative and drugs containing the same” (Toray Industries, Inc., priority 1998, dated 2003)
